In ChEMBL document CHEMBL4265956, “Discovery of potent and selective Spleen Tyrosine Kinase inhibitors for the topical treatment of inflammatory skin disease” (Bioorg Med Chem Lett, 2018):

Assay: Drug uptake in human skin dermal layer administered topically after 6 hrs by LC-MS/MS analysis
Type: ADME, tissue-based, Dermis
Settings: topical_or_ocular
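Throughout, for logD: lipophilicity determined by HPLC.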

Row | Drug uptake [µg] | Compound
1 | 0.43 | CC(=O)c1ccc(OCc2cc(C)ccn2)c(-c2ccc3c(c2)CCNCC3)c1
2 | 0.38 | COc1cccc(OCc2cc(C)ccn2)c1-c1ccc2c(c1)CCNCC2

Assay: physchem
Settings: buffer, pH 7.4

Row | Compound | logD
3 | COc1ccc(-c2nc(C)ccc2OCc2ccc(C)cn2)cc1 | 5.5
4 | COc1ccc(-c2c(F)cccc2OCc2ccccn2)cc1 | 6.2
5 | COc1ccc(-c2nc(C)ccc2OCc2cc(C)ccn2)cc1 | 5.4
6 | CC(=O)c1ccc(OCc2ccccn2)c(-c2ccc3c(c2)CNCCC3)c1 | 2.3
7 | COc1ccc(-c2ccc(F)cc2OCc2ccccn2)cc1 | 6.6
8 | CC(=O)c1ccc(OCc2cc(C)ccn2)c(-c2ccc3c(c2)CCNCC3)c1 | 2.5
9 | COc1ccc(-c2nc(C)ccc2OCc2cccc(C)n2)cc1 | 5.5
10 | COc1ccc(-c2nc(C)ccc2OCc2ccccn2)cc1 | 5
11 | Cc1ccc(-c2ncccc2OCc2ccccn2)cc1 | 4.9
12 | COc1ccc(-c2c(C)cccc2OCc2ccccn2)cc1 | 6.7
13 | COc1ccc(-c2ccccc2OCc2ccccn2)cc1 | 6.2
14 | Cc1ccc(-c2ccccc2OCc2ccccn2)cc1 | 7
15 | CCc1ccnc(COc2ccc(C(C)=O)cc2-c2ccc3c(c2)CCNCC3)c1 | 2.8
16 | Cc1ccnc(COc2ccc(C#N)cc2-c2ccc3c(c2)CCNCC3)c1 | 2.8
17 | COc1cccc(OCc2cnccn2)c1-c1ccc2c(c1)CCNCC2 | 2.2
18 | COc1ccc(-c2ccc(OC)cc2OCc2ccccn2)cc1 | 6.2
19 | COc1ccc(-c2ccc3c(c2)CCNCC3)c(OCc2cc(C)ccn2)c1 | 3
20 | COc1ccc(OCc2cc(C)ccn2)c(-c2ccc3c(c2)CCNCC3)c1 | 3
21 | COc1cccc(OCc2cc(C)ccn2)c1-c1ccc2c(c1)CCNCC2 | 3.1
22 | CC(=O)c1ccc(OCc2ccccn2)c(-c2ccc3c(c2)CNCC3)c1 | 2.2
23 | COc1ccc(-c2nc(C)ccc2OCc2ncccc2C)cc1 | 5.3
24 | CNC(=O)c1ccc(OCc2cc(C)ccn2)c(-c2ccc3c(c2)CCNCC3)c1 | 1.9
25 | CC(=O)c1ccc(OCc2ccccn2)c(-c2ccc3c(c2)CCNC3)c1 | 2.1
26 | CCOc1ccnc(COc2ccc(C(C)=O)cc2-c2ccc3c(c2)CCNCC3)c1 | 2.7
27 | CC(=O)c1ccc(OCc2ccccn2)c(-c2ccc3c(c2)CCNCC3)c1 | 2.3
28 | CC(=O)c1ccc(OCc2ccccn2)c(-c2ccc3c(c2)CNC3)c1 | 2.1
29 | CC(=O)c1ccc(OCc2ccccn2)c(-c2ccc3c(c2)CCCNC3)c1 | 2.3
30 | COc1ccc(-c2c(OC)cccc2OCc2ccccn2)cc1 | 5.8

Other lines, results leading:

Row | logD | Compound
31 | 6.1 | CC(=O)c1ccc(OCc2ccccn2)c(-c2ccc(C)cc2)c1
32 | 4.5 | COc1ccc(-c2cc(C(C)=O)ccc2OCc2ccncn2)cc1
33 | 2.1 | CC(=O)c1ccc(OCc2ccccn2)c(-c2ccc(CCN)cc2)c1
34 | 5 | CC(=O)c1ccc(OCc2ccccn2)c(-c2ccccc2)c1
35 | 6 | COc1ccc(-c2cc(OC)ccc2OCc2ccccn2)cc1
36 | 4.5 | COc1ccc(-c2cc(C(C)=O)ccc2OCc2ncccn2)cc1
37 | 6.8 | COc1ccc(-c2cc(C)ccc2OCc2ccccn2)cc1
38 | 1.9 | CC(=O)c1ccc(OCc2ccccn2)c(-c2ccc(CN)cc2)c1
39 | 5.3 | COc1ccc(-c2cc(C(C)=O)ccc2OCc2ccccn2)cc1
40 | 6.4 | COc1ccc(-c2cc(F)ccc2OCc2ccccn2)cc1
41 | 5.6 | CC(=O)c1ccc(OCc2ccccn2)c(-c2ccc(F)cc2)c1
42 | 5.4 | COc1cccc(-c2cc(C(C)=O)ccc2OCc2ccccn2)c1
43 | 6 | CC(=O)c1ccc(OCc2ccccn2)c(-c2cccc(C)c2)c1
44 | 4.7 | COc1ccc(-c2cc(C(C)=O)ccc2OCc2cnccn2)cc1
45 | 4.1 | COc1ccc(-c2cc(C(C)=O)ccc2OCc2cccnn2)cc1

Assay: Drug uptake in human skin epidermal layer administered topically after 6 hrs by LC-MS/MS analysis
Type: ADME, tissue-based, Skin epidermis
Settings: topical_or_ocular

Row | Drug uptake [µg] | Compound
46 | 5.52 | CC(=O)c1ccc(OCc2cc(C)ccn2)c(-c2ccc3c(c2)CCNCC3)c1
47 | 9.34 | COc1cccc(OCc2cc(C)ccn2)c1-c1ccc2c(c1)CCNCC2

Assay: Apparent permeability of the compound after 3 hrs by PAMPA
Type: ADME
Settings: not given

Row | Papp at 3 h [×10⁻⁶ cm/s] | Compound
48 | 33 | COc1ccc(-c2nc(C)ccc2OCc2cc(C)ccn2)cc1
49 | 43.5 | Cc1ccnc(COc2ccc(C)nc2-c2ccc3c(c2)CCNCC3)c1
